The values that follow come from patent US20250129041A1, “MOLECULAR GLUE AND USES THEREOF” (ASTROGEN, INC., priority 2023, published 2025).

The test system of series [1] is TA100 strain. The protocol:
(§1) First, TA98 and TA 100 strains, which detect frameshift mutations and point mutations, respectively, were cultured. Then, AST-DT-218 was dissolved in a solvent and diluted to various concentrations (20.5 μg/mL, 61.7 μg/mL 185.1 μg/mL, […], 1666.6 μg/mL, and 5000 μg/mL) to prepare an […] (a metabolic activation system; concentration: 30%) including liver enzyme extracts and supplements. Into a histidine-deficient medium at different concentrations of AST-DT-218, (i) the TA98 strain was inoculated without the […] (TA98−S9), (ii) the TA98 strain was inoculated by mixing it with the […] (TA98+S9), (iii) the TA100 strain was inoculated without the […] (TA100−S9), and (iv) the TA100 strain was inoculated by mixing it with the S9 mixture (TA100+S9). As a solvent control, which is a negative control, only the solvent was inoculated into a histidine-deficient medium, and only a pure solvent was used in the absence of any compound. […] After culturing for 48 to 72 hours in each medium, the number of colonies generated was counted to calculate the mutation rate, and the mutagenic effect was compared depending on the presence or absence of the S9 mixture to analyze the effect on metabolic activation.

Series [2] relates to TA98 strain. The protocol:
as §1

Series [3] deals with hERG channel (Homo sapiens (Human), UniProt Q12809). The series can be described thus: hERG ligand binding assay. The note with it: membranes of hERG channel-expressing HEK293 cell line. The procedure:
Additionally, a ligand binding assay was performed to measure the affinity of AST-DT-218 that binds to the hERG channel. First, a hERG channel-expressing cell line (HEK293) was cultured, and then the cells were centrifuged to extract the cell membrane, and membrane proteins were prepared using a cell lysis reagent. A labeled hERG ligand was prepared and AST-DT-218 was dissolved in a solvent (DMSO) and diluted to a concentration (1 μM). After dispensing the cell membrane proteins into a 96-well plate or appropriate experimental equipment, competitive binding experiments were performed by adding AST-DT-218 at various concentrations to each well and incubated for 1 to 2 hours. After completion of the binding, the unbound ligands were washed using a recovery solution to separate the same, the extent of ligand binding was measured using a radiation detection device or fluorescence reader, and the signal intensities were analyzed to calculate the ligand binding inhibition ratio. The degree of binding inhibition according to the concentration of AST-DT-218 was plotted to derive the IC50 value.
Background: Block of hERG is tested as a sign of cardiac risk.

The nature of series [4]: Maximum tolerated dose (MTD) test. The format is in vivo. The note with it: mice, daily injection day 1 to day 5, highest dose 20 mg/kg. The procedure:
The in vivo maximum tolerated dose (MTD) of AST-DT-218 was evaluated to determine the highest dose at which AST-DT-218 could be safely administered to experimental animals. First, the compound AST-DT-218 and the preparation solvent to be used in the experiment were prepared. The solvent was a mixture of 5% Tween 80, 40% PEG400, 10% DMSO, and 45% DPBS, and AST-DT-218 was prepared according to each dose as shown in Table 6 below. Mice (n=5) to be used in the experiment were prepared and divided into five groups to perform the experiment. The control group was injected with only 0 mg/kg of the solvent, and the remaining groups were injected with the AST-DT-218 solution at 2.5 mg/kg, 5 mg/kg, 10 mg/kg, and 20 mg/kg, respectively, and the injection amount was set to 0.1 mL for a 20 g mouse.
From day 1 to day 5, the injections were administered at the same time daily, and the changes in weight and abnormal behaviors of the mice were observed and data were collected during the experiment.

For series [5], the system named is Huh7. The series can be described thus: Dose response curve, cell survival, 48 hours, Huh7. Conditions: Homo sapiens, Huh-7, Hepatocellular Carcinoma, read-out: IC50 of AST-DT-218, Huh7. The format is cell-based. The protocol:
(§2) A DRC was created to determine whether AST-DT-218 is effective in killing various cancer cells. First, hepatoma cell lines (Huh7 and Hep3B), non-small cell lung cancer cell lines (NCI-H460 and NCI-H1299), pancreatic cancer cell lines (PANC-1 and Mia-Paca-2), rectal cancer cell lines (HT29 and HCT116), a gastric adenocarcinoma cell line (AGS), a malignant melanoma cell line (A375), and an adenocarcinoma cell line (MDA-MB-231) were prepared. Each cell line was cultured in a flask, and the cells which reached the logarithmic growth phase were prepared, washed with PBS, harvested with trypsin, centrifuged to adjust the cell density, and then resuspended in an appropriate culture medium, and plated into 96-well plates. After culturing until the cells attached to the plates and stabilized, AST-DT-218 and controls (lenalidomide and pomalidomide) were prepared and diluted to various concentrations (10-point by diluting by half from the highest concentration of 50 μM). […] After completion of the culture, cell survival was assessed using a cell counting method through cell nuclear staining. Data were collected by measuring cell survival at each concentration, and then DRC was created (see FIGS. 5 to 12) and IC50 values were calculated (see Table 8).

Series [6] deals with Hep3B. The series can be described thus: Dose response curve, cell survival, 48 hours, Hep3B. The format is cell-based. The note with it: Homo sapiens, Hepatocellular Carcinoma, read-out: IC50 of AST-DT-218, Hep3B. The procedure:
as §2

Series [7] relates to NCI-H1299. The series can be described thus: Dose response curve, cell survival, 48 hours, NCI-H1299. Conditions: Homo sapiens, Non-Small Cell Lung Cancer, read-out: IC50 of AST-DT-218, NCI-H1299. The format is cell-based. The procedure: as §2
Series [8] deals with PANC-1. The series can be described thus: Dose response curve, cell survival, 48 hours, PANC-1. The format is cell-based. The note with it: Homo sapiens, Pancreatic Carcinoma, read-out: IC50 of AST-DT-218, PANC-1. The procedure: as §2
The test system of series [9] is Mia-Paca-2. The series can be described thus: Dose response curve, cell survival, 48 hours, Mia-Paca-2. The format is cell-based. Conditions: Homo sapiens, Pancreatic Carcinoma, read-out: IC50 of AST-DT-218, Mia-Paca-2. The protocol: as §2
In series [10] the test system is HT29. Description: Dose response curve, cell survival, 48 hours, HT29. The format is cell-based. The note with it: Homo sapiens, HT-29, Colorectal Carcinoma, read-out: IC50 of AST-DT-218, HT29. The procedure: as §2
For series [11], the system named is AGS. Description: Dose response curve, cell survival, 48 hours, AGS. The format is cell-based. The note with it: Homo sapiens, Gastric Adenocarcinoma, read-out: IC50 of AST-DT-218, AGS. The procedure:
as §2

In series [12] the test system is A375. Description: Dose response curve, cell survival, 48 hours, A375. The format is cell-based. The note with it: Homo sapiens, A-375, Malignant Melanoma, read-out: IC50 of AST-DT-218, A375. The protocol:
as §2

Sequence of hERG channel (Q12809 whole entry): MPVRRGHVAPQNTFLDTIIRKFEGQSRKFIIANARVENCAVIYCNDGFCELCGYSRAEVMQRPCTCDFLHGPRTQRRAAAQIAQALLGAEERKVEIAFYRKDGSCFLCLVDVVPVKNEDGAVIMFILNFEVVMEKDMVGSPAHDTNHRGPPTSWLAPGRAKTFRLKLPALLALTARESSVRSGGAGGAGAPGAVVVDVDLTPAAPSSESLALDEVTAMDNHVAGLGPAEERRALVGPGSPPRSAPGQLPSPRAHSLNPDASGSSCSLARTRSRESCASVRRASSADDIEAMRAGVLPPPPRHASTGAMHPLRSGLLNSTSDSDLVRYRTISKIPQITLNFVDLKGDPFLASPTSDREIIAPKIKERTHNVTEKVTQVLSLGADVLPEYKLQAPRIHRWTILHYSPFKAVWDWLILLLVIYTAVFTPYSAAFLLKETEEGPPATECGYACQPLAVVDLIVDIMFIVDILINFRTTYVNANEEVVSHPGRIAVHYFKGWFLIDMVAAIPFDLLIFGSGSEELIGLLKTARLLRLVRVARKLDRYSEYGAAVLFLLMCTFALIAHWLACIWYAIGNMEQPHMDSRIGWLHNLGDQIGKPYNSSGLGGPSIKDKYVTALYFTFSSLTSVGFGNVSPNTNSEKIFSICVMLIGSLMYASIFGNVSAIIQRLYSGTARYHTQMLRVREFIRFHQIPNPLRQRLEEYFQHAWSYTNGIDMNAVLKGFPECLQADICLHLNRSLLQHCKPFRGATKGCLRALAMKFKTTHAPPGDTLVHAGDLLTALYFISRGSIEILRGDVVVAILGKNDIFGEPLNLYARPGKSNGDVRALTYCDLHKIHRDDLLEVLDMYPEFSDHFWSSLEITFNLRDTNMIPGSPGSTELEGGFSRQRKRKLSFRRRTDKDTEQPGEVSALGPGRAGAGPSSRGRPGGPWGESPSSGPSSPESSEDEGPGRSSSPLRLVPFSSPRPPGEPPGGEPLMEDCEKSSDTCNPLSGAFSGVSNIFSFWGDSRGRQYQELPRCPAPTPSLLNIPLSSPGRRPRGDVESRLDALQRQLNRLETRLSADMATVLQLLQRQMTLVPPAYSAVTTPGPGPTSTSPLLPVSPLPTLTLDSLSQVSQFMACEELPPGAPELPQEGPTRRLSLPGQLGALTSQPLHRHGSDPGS

Regarding `COc1ccc([C@@H](C)Nc2cccc3c2C(=O)N(C2CCC(=O)NC2=O)C3=O)cc1` (stereo partly drawn) [AST-DT-218, 2-(2,6-dioxopiperidin-3-yl)-4-(((R)-1-(4-methoxyphenyl)ethyl)amino)isoindoline-1,3-dione], the “number of mutant colonies” value in series [1] (TA100, regardless of presence or absence of S9 mixture) is reported as “no significant increase”; in series [2] (TA98, regardless of presence or absence of S9 mixture), “no significant increase”. In addition, the “Mutagenic Data Points w/ S9” value in series [1] (TA100, test conc. 20.5-5,000 μg/mL, with S9) is on record as “No”; in [2] (TA98, test conc. 20.5-5,000 μg/mL, with S9) it was “No”. The “Mutagenic Data Points w/o S9” value was “No” in series [1] (TA100, test conc. 20.5-5,000 μg/mL, without S9) and “No” in [2] (TA98, test conc. 20.5-5,000 μg/mL, without S9). Also, the “possibility of causing cardiotoxicity (hERG ligand binding)” value in series [3] is given as “low possibility of causing cardiotoxicity”. Besides, in [4], the “weight loss or abnormal behavior” value is listed as “no weight loss or abnormal behavior”. The IC50 is 693 nM in [5]; 882 nM in series [6]; 390 nM in series [7]; 674 nM in series [8]; 292 nM in series [9]; 340 nM in [10]. The IC50 in [11] amounted to 254 nM; in series [12], 227 nM.

In general, IC50 refers to the concentration that inhibits the measured activity by half.
